From PMC10982999, “Structure-Guided Design and Optimization of Covalent VHL-Targeted Sulfonyl Fluoride PROTACs” (Journal of Medicinal Chemistry, 2024) come the findings set out here.

This test addresses T1, VHL in HEK293T cells (Homo sapiens, UniProt P40337).
T1 construct: endogenous in cells; host or cells: HEK293T
As to the kind of experiment: Gel-based competition pull-down assay from live cells. The class given is cell-based. The following applies: HEK293T cells pretreated 2 h at 37 °C; lysate treated with VHL-SF2-Biotin 50 μM 2 h. How it is done: Figure 2 (A) Structure of VHL-SF2. […] (E) Competition pull-down assay from live cells between VHL-SF2-Biotin and VHL-SF2. HEK293T cells were pretreated with DMSO or varying concentrations of VHL-SF2 for 2 h at 37 °C. The cells were lysed and treated with DMSO or VHL-SF2-Biotin (50 μM) for 2 h at room temperature. A pull-down with streptavidin beads was conducted, after which the protein was resolved on SDS/PAGE. VHL and loading control GAPDH levels were visualized by Western blotting.
Initially, we subjected VHL-SF2-Biotin to the streptavidin shift assay and observed a greater extent of VHL modification (44%) than for VHL-SF1-Biotin under the same conditions (Figure S2). […] Intact LC–MS analysis confirmed single labeling of VHL by VHL-SF2, with 65% conversion at 24 h (Figure S5). Although we attempted several site ID identification experiments by digesting the labeled recombinant VHL, the Ser110-containing peptide was not detected in the samples treated with VHL-SF2. This observation is consistent with a change in peptide properties that is incompatible with mass spectrometry detection compared to untreated samples (Table S2). […]
VCB (11.1 mg/ mL) was diluted with PBS pH 7.4 (2 µg/ mL). […] 10 µL of each sample was loaded onto the gel and the bands were quantified […]

Each structure is given as a SMILES string.

With `Cc1cc([C@H](C(=O)N2C[C@H](S(=O)(=O)F)C[C@H]2C(=O)N[C@@H](CC(=O)OC(C)(C)C)c2ccc(-c3scnc3C)cc2)C(C)C)on1` [VHL-SF2, tert-Butyl (S)-3-((2S,4R)-4-(Fluorosulfonyl)-1-((R)-3-methyl-2-(3-methylisoxazol-5-yl)butanoyl)pyrr-olidine-2-carboxamido)-3-(4-(4-methylthiazol-5-yl)phenyl)propanoate], the “pull-down of VHL by VHL-SF2-Biotin after compound pretreatment” value was “dose-dependently competed”.
